Measurements as given in patent publication US20110152243A1, “NOVEL THIENOPYRROLE COMPOUNDS” (ABBOTT LABORATORIES, priority 2009, published 2011).

Target: PKCθ (Homo sapiens, UniProt Q04759)
Experiment: PKCθ enzyme data at 1 mM ATP
Format: biochemical

Sequence of PKCθ (Q04759 whole entry): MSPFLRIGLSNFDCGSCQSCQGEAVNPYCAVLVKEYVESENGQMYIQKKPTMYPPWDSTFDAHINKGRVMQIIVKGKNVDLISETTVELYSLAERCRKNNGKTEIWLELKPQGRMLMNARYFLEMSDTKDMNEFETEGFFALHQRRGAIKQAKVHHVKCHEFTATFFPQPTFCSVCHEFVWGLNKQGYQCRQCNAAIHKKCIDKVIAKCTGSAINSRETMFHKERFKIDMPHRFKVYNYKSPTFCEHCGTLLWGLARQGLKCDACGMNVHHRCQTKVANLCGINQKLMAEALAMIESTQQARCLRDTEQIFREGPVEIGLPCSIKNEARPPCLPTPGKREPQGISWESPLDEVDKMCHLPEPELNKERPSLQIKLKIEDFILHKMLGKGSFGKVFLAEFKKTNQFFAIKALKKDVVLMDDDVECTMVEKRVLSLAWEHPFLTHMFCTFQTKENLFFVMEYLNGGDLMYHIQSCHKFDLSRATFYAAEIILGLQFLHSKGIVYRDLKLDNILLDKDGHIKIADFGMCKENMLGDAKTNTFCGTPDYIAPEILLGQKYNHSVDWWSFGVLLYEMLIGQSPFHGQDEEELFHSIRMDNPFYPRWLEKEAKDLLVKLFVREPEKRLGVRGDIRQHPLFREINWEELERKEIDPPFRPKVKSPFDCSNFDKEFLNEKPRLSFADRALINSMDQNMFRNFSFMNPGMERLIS

IC50 [nM] | Compound
500 to 1000 | O=C1NC(=O)C(c2c[nH]c3sccc23)=C1c1nc(N2CCN3C(=O)OCC3C2)nc2ccccc12 (centres unmarked) [E.1.15]
< 100 | CC(C)(C)N1CCN(c2nc(C3=C(c4c[nH]c5sccc45)C(=O)NC3=O)c3ccccc3n2)CC1 [E.1.22]
< 100 | O=C1NC(=O)C(c2c[nH]c3sccc23)=C1c1nc(N2CCC(N3CCC3)CC2)nc2ccccc12 [E.1.13]
100 to 500 | CNCC1CCN(c2nc(C3=C(c4c[nH]c5sccc45)C(=O)NC3=O)c3ccccc3n2)CC1 [G.1.15]
< 100 | O=C1NC(=O)C(c2c[nH]c3sccc23)=C1c1nc(N2CC[C@@H]3NCC[C@@H]3C2)nc2ccccc12 (relative stereo) [G.1.19]
< 100 | CC(C)N1CCN(c2nc(C3=C(c4c[nH]c5sccc45)C(=O)NC3=O)c3ccccc3n2)CC1 [E.1.21]
100 to 500 | O=C1NC(=O)C(c2c[nH]c3sccc23)=C1c1nc(N2CCC(CN3CCCC3)CC2)nc2ccccc12 [E.1.11]
< 100 | O=C1NC(=O)C(c2c[nH]c3sccc23)=C1c1nc(N2CCC3(CCN3)CC2)nc2ccccc12 [E.1.35]
< 100 | Cn1cnc2c1CCN(c1nc(C3=C(c4c[nH]c5sccc45)C(=O)NC3=O)c3ccccc3n1)C2 [E.1.54]
100 to 500 | O=C1NC(=O)C(c2c[nH]c3sccc23)=C1c1nc(N2CCC3(CC2)CNC3)nc2ccccc12 [G.1.13]
100 to 500 | CN(C)C1(C)CCN(c2nc(C3=C(c4c[nH]c5sccc45)C(=O)NC3=O)c3ccccc3n2)CC1 [E.1.41]
< 100 | NC1(CO)CCN(c2nc(C3=C(c4c[nH]c5sccc45)C(=O)NC3=O)c3ccccc3n2)CC1 [E.1.57]
< 100 | CN(C)CC1CCN(c2nc(C3=C(c4c[nH]c5sccc45)C(=O)NC3=O)c3ccccc3n2)CC1 [E.1.5]
< 100 | CC(O)c1ncc2n1CCN(c1nc(C3=C(c4c[nH]c5sccc45)C(=O)NC3=O)c3ccccc3n1)C2 (centres unmarked) [E.1.52]
< 100 | CN1CCN(c2nc(C3=C(c4c[nH]c5sccc45)C(=O)NC3=O)c3ccccc3n2)CC1(C)C [E.1.24]
< 100 | CN1CC2CCN(c3nc(C4=C(c5c[nH]c6sccc56)C(=O)NC4=O)c4ccccc4n3)CC2C1 (centres unmarked) [E.1.39]
< 100 | O=C1NC(=O)C(c2c[nH]c3sccc23)=C1c1nc(N2CC[C@H](N3CCCC3)[C@@H](F)C2)nc2ccccc12 [E.1.30]

Further lines, the compound ahead of its results:

Compound | IC50 [nM]
CN1CCN(c2nc3c(c(C4=C(c5c[nH]c6sccc56)C(=O)NC4=O)n2)CCC3)CC1 [F.4.10] | 100 to 500
CN1CCN(c2nc(C3=C(c4c[nH]c5ccsc45)C(=O)NC3=O)c3ccc(F)cc3n2)CC1 [F.3.5] | < 100
CN1CCN(c2cc(C3=C(c4c[nH]c5ccsc45)C(=O)NC3=O)c3ccccc3n2)CC1 [F.3.3] | < 100
CN1CCN(c2nc(C3=C(c4c[nH]c5ccsc45)C(=O)NC3=O)c3c(F)cccc3n2)CC1 [F.3.1, 3-(5-Fluoro-2-(4-methylpiperazin-1-yl)quinazolin-4-yl)-4-(4H-thieno[3,2-b]pyrrol-6-yl)-1H-pyrrole-2,5-dione] | < 100
O=C1NC(=O)C(c2c[nH]c3ccsc23)=C1c1nc(NC2CCNCC2)nc2ccccc12 [G.1.8] | 100 to 500
CN(C)CCCn1nc(C2=C(c3c[nH]c4sccc34)C(=O)NC2=O)c2ccccc21 [F.4.29] | 100 to 500
CN1CCN(c2nccc(C3=C(c4c[nH]c5sccc45)C(=O)NC3=O)n2)CC1 [F.4.8] | 500 to 1000
Cc1ccc2nc(N3CCN(C)CC3)nc(C3=C(c4c[nH]c5sccc45)C(=O)NC3=O)c2c1 [F.4.31] | < 100
CN(C)C1CCN(c2nc(C3=C(c4c[nH]c5ccsc45)C(=O)NC3=O)c3ccccc3n2)CC1 [E.2.3] | < 100
CN1CCN(C2CCN(c3nc(C4=C(c5c[nH]c6sccc56)C(=O)NC4=O)c4ccccc4n3)CC2)CC1 [E.1.8] | < 100
O=C1NC(=O)C(c2nn(C3CCNCC3)c3ccccc23)=C1c1c[nH]c2sccc12 [G.1.11] | 100 to 500
O=C1NC(=O)C(c2c[nH]c3ccsc23)=C1c1nc(N2CCNCC2)nc2ccccc12 [G.1.1, 3-(2-(piperazin-1-yl)quinazolin-4-yl)-4-(4H-thieno[3,2-b]pyrrol-6-yl)-1H-pyrrole-2,5-dione] | < 100
CC(C1CCN(c2nc(C3=C(c4c[nH]c5sccc45)C(=O)NC3=O)c3ccccc3n2)CC1)N1CCCC1 (centres unmarked) [E.1.4] | 500 to 1000
COCCN1CCC(Cn2nc(C3=C(c4c[nH]c5sccc45)C(=O)NC3=O)c3ccccc32)C1 (centres unmarked) [F.4.26] | 100 to 500
O=C1NC(=O)C(c2c3ccccc3nn2CC2CCNCC2)=C1c1c[nH]c2sccc12 [G.1.16] | 100 to 500
O=C1NC(=O)C(c2c[nH]c3ccsc23)=C1c1nc(N2CCC(N3CCCCC3)CC2)nc2ccccc12 [E.2.2] | < 100
O=C1NC(=O)C(c2c[nH]c3sccc23)=C1c1nc(N2CCn3c(nnc3C(F)(F)F)C2)nc2ccccc12 [E.1.20] | 100 to 500
CN1CCC(n2nc(C3=C(c4c[nH]c5sccc45)C(=O)NC3=O)c3ccccc32)CC1 [F.4.7] | 100 to 500
O=C1NC(=O)C(c2c[nH]c3ccsc23)=C1c1nc(N2CCC(N3CCCC3)CC2)nc2ccccc12 [E.2.6] | < 100
CN1CCN(c2nc(C3=C(c4c[nH]c5sccc45)C(=O)NC3=O)c3c(O)cccc3n2)CC1 [F.4.12] | 500 to 1000
CN1CCN(c2nc(C3=C(c4c[nH]c5sccc45)C(=O)NC3=O)c3ccsc3n2)CC1 [F.4.2, 3-(2-(4-Methylpiperazin-1-yl)thieno[2,3-d]pyrimidin-4-yl)-4-(6H-thieno[2,3-b]pyrrol-4-yl)-1H-pyrrole-2,5-dione] | < 100
CN(C)Cc1ncc2n1CCN(c1nc(C3=C(c4c[nH]c5sccc45)C(=O)NC3=O)c3ccccc3n1)C2 [E.1.51] | < 100
O=C1NC(=O)C(c2nn(CC3CCN(CCF)CC3)c3ccccc23)=C1c1c[nH]c2sccc12 [F.4.20] | 100 to 500
O=C1NC(=O)C(c2nn(CC3CCNCC3)c3ccccc23)=C1c1c[nH]c2sccc12 [G.1.12] | < 100
